From US7119073B2, “Peptides and their use as inhibitors of hepatitis C virus ns3 protease” (Istituto Di Ricerche Di Biologia Molecolare P. Angeletti SpA, priority 2001, dated 2006)

Each compound was assayed against T1, NS3 protease domain complexed to a modified form of the NS4A peptide (Pep4AK) (Hepatitis C virus genotype 1b, UniProt P26663) (assay: HCV NS3 protease domain/NS4A cofactor peptide assay (Assay B)). Conditions: NS3 protease domain/NS4A cofactor peptide assay; read-out: Assay B (IC50 class).
T1 construct: NS3 protease domain (residues 1027–1206 of the HCV polyprotein)
T1 sequence (P26663 1027-1206, other chains not shown): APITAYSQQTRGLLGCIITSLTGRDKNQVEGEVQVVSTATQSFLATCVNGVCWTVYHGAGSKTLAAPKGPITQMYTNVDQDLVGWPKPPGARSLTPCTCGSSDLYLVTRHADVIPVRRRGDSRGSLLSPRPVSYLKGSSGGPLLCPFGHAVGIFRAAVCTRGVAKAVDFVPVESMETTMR
Type: biochemical

Compound	IC50 [µM]
CC(C)C[C@H](NC(=O)C1Cc2ccccc2N1)C(=O)N[C@@H](CC(F)F)C(=O)NCCc1c(F)cc(C(=O)O)cc1F (stereo partly drawn) [Compound 709]	< 100
CC(C)C[C@H](NC(=O)C1(Cc2cccc(C(=O)O)c2)Cc2ccccc2N1)C(=O)N[C@@H](CS)C(=O)NCCc1ccc(C(=O)O)cc1 (mixture of isomers) [Compound 701]	< 100
CC(C)C[C@H](NC(=O)C1(Cc2ccc(C(=O)O)s2)Cc2ccccc2N1)C(=O)N[C@@H](CS)C(=O)NCCc1ccc(C(=O)O)cc1 (mixture of isomers) [Compound 703]	< 100
CC(C)CC(NC(=O)c1ccccc1-c1ccccc1C(=O)O)C(=O)NC(CC(F)F)C(=O)NCCc1ccc(C(=O)O)cc1Cl (stereo not drawn) [Compound 715]	< 100
CCOC(=O)CNc1cccc(CCNC(=O)C(CC(F)F)NC(=O)C(CC(C)C)NC(=O)c2ccccc2-c2ccccc2C(=O)O)c1 (stereo not drawn) [Compound 721]	< 100
CC(C)C[C@H](NC(=O)C1(Cc2ccc(C(=O)O)cc2)Cc2ccccc2N1)C(=O)N[C@@H](CS)C(=O)NCCc1ccc(C(=O)O)cc1 (single isomer, unassigned) [Compound 702]	< 100
CC(C)C[C@H](NC(=O)C1(Cc2ccsc2C(=O)O)CCc2ccccc2N1)C(=O)N[C@@H](CC(F)F)C(=O)NCCc1c(F)cc(C(=O)O)cc1F (single isomer, unassigned) [Compound 713]	< 100
CC(C)CC(NC(=O)c1ccccc1-c1ccccc1C(=O)O)C(=O)NC(CC(F)F)C(=O)NCCc1cccc(NCC(=O)O)c1 (stereo not drawn) [Compound 720]	< 100

Same assay, conditions: Table 1; NS3 protease domain/Pep4AK, 4AB peptide substrate; read-out: Assay B

Compound	IC50 [µM]
CC(C)COC(=O)NC(CCC(=O)O)C(=O)NC(CC(C)C)C(=O)NC(CS)C(=O)NCCc1cccc(C(F)(F)F)c1 (stereo not drawn) [Compound 131]	< 100
Cc1cccc(CCNC(=O)C(CS)NC(=O)C(CC(C)C)NC(=O)C(CCC(=O)O)NC(=O)OCC(C)C)c1 (stereo not drawn) [Compound 130]	< 100
CC(C)COC(=O)N[C@@H](CCC(=O)O)C(=O)N[C@@H](CC(C)C)C(=O)N[C@@H](CS)C(=O)NCCc1cccc(/C=C/C(=O)O)c1 [Compound 134]	< 10
CC(C)COC(=O)NC(CCC(=O)O)C(=O)NC(CC(C)C)C(=O)NC(CS)C(=O)NCCc1cccs1 (stereo not drawn) [Compound 191]	< 100
CC(C)COC(=O)NC(CCC(=O)O)C(=O)NC(CC(C)C)C(=O)NC(CS)C(=O)NCCc1cccc(O)c1 (stereo not drawn) [Compound 129]	< 100
CC(C)COC(=O)NC(CCC(=O)O)C(=O)NC(CC(C)C)C(=O)NC(CC(F)F)C(=O)NCCc1c(F)cc(C(=O)O)cc1F (stereo not drawn) [Compound 187]	< 1
CC(C)COC(=O)NC(CCC(=O)O)C(=O)NC(CC(C)C)C(=O)NC(CS)C(=O)NCCc1ccc([N+](=O)[O-])cc1 (stereo not drawn) [Compound 147]	< 100
CCOC(=O)/C=C/c1cccc(CCNC(=O)[C@H](CS)NC(=O)[C@H](CC(C)C)NC(=O)[C@H](CCC(=O)O)NC(=O)OCC(C)C)c1 [Compound 135]	< 100
CC(C)CCOC(=O)NC(C(=O)NC(CC(C)C)C(=O)NC(CS)C(=O)NCCc1ccc(C(=O)O)cc1Cl)C(C)C (stereo not drawn) [Compound 184]	< 10
CCOc1ccc(CCNC(=O)C(CS)NC(=O)C(CC(C)C)NC(=O)C(CCC(=O)O)NC(=O)OCC(C)C)cc1 (stereo not drawn) [Compound 144]	< 100
CCOC(=O)/C=C/c1ccc(CCNC(=O)[C@H](CS)NC(=O)[C@H](CC(C)C)NC(=O)[C@H](CCC(=O)O)NC(=O)OCC(C)C)cc1 [Compound 157]	< 10
CC(C)C[C@H](NC(=O)[C@@H](NC(=O)OCC1CCOC1)C(C)C)C(=O)N[C@@H](CS)C(=O)NCCc1ccc(C(=O)O)cc1Cl (stereo partly drawn) [Compound 183]	< 10
COC(=O)c1cccc(CCNC(=O)C(CS)NC(=O)C(CC(C)C)NC(=O)C(CCC(=O)O)NC(=O)OCC(C)C)c1 (stereo not drawn) [Compound 132]	< 100
CC(C)COC(=O)N[C@@H](CCC(=O)O)C(=O)N[C@@H](CC(C)C)C(=O)N[C@@H](CS)C(=O)NCC(CC(=O)O)c1ccc(Cl)cc1 (stereo partly drawn) [Compound 111]	< 100
CC(C)COC(=O)NC(CCC(=O)O)C(=O)NC(CC(C)C)C(=O)NC(CS)C(=O)NCCc1ccc(C(F)(F)F)cc1 (stereo not drawn) [Compound 149]	< 100

Other lines, results leading:

IC50 [µM]	Compound
< 10	CC(C)COC(=O)N[C@@H](CCC(=O)O)C(=O)N[C@@H](CC(C)C)C(=O)N[C@@H](CS)C(=O)NCCc1cn(CC(=O)O)c2ccccc12 [Compound 188]
< 100	CC(C)COC(=O)NC(CCC(=O)O)C(=O)NC(CC(C)C)C(=O)NC(CS)C(=O)NCCc1ccc(Cl)c(Cl)c1 (stereo not drawn) [Compound 172]
< 100	CC(C)COC(=O)NC(CCC(=O)O)C(=O)NC(CC(C)C)C(=O)NC(CS)C(=O)NCCc1ccc(Oc2ccccc2)cc1 (stereo not drawn) [Compound 145]
< 100	CC(C)COC(=O)NC(CCC(=O)O)C(=O)NC(CC(C)C)C(=O)NC(CS)C(=O)NCCc1cccc(F)c1 (stereo not drawn) [Compound 126]
< 100	CCOc1ccccc1CCNC(=O)C(CS)NC(=O)C(CC(C)C)NC(=O)C(CCC(=O)O)NC(=O)OCC(C)C (stereo not drawn) [Compound 120]
< 100	CC(C)CC(NC(=O)C(CCC(=O)O)NC(=O)OCc1ccccc1)C(=O)NC(CS)C(=O)NCCc1ccccc1Cl (stereo not drawn) [Compound 116]
< 100	CC(C)COC(=O)NC(CCC(=O)O)C(=O)NC(CC(C)C)C(=O)NC(CS)C(=O)NCCc1ccc(Cl)cc1 (stereo not drawn) [Compound 138]
< 100	CC(C)COC(=O)NC(CCC(=O)O)C(=O)NC(CC(C)C)C(=O)NC(CS)C(=O)NCCc1cccc(Br)c1 (stereo not drawn) [Compound 128]
< 100	CC(C)COC(=O)NC(CCC(=O)O)C(=O)NC(CC(C)C)C(=O)NC(CS)C(=O)NCCc1ccccc1Cl (stereo not drawn) [Compound 113]

Same assay, conditions: Table 2; NS3 protease domain/Pep4AK; read-out: Assay B

Compound	IC50 [µM]
COc1ccc(CCNC(=O)[C@H](CS)NC(=O)[C@H](CC(C)C)NC(=O)[C@H](CCC(=O)O)NC(=O)CCC2CCCC2)cc1 [Compound 236]	< 100
COc1ccc(CCNC(=O)[C@H](CS)NC(=O)[C@H](CC(C)C)NC(=O)[C@H](CCC(=O)O)NS(=O)(=O)c2ccccc2)cc1 [Compound 250]	< 100
CC(C)C[C@H](NC(=O)[C@H](CCC(=O)O)NC(=O)CC1NC(=O)NC1=O)C(=O)N[C@@H](CS)C(=O)NCCc1ccc(Cl)cc1Cl (stereo partly drawn) [Compound 238]	< 100
COc1ccc(CCNC(=O)[C@H](CS)NC(=O)[C@H](CC(C)C)NC(=O)[C@H](CCC(=O)O)NC(=O)CC(C)(C)CC(=O)O)cc1 [Compound 241]	< 100
COc1ccc(CCNC(=O)[C@H](CS)NC(=O)[C@H](CC(C)C)NC(=O)[C@H](CCC(=O)O)NC(=O)Cc2cccs2)cc1 [Compound 223]	< 100
COc1ccc(CCNC(=O)[C@H](CS)NC(=O)[C@H](CC(C)C)NC(=O)[C@H](CCC(=O)O)NC(=O)c2cc3ccccc3s2)cc1 [Compound 213]	< 100

Next, values leading:

IC50 [µM]	Compound
< 100	CC(C)C[C@H](NC(=O)[C@H](CCC(=O)O)NC(=O)/C=C/c1ccc([N+](=O)[O-])cc1)C(=O)N[C@@H](CS)C(=O)NCCc1ccccc1Cl [Compound 218]
< 100	CC(C)C[C@H](NC(=O)[C@H](CCC(=O)O)NC(=O)CCC1CCCC1)C(=O)N[C@@H](CS)C(=O)NCCc1ccccc1Cl [Compound 235]
< 100	COc1ccc(CCNC(=O)[C@H](CS)NC(=O)[C@H](CC(C)C)NC(=O)[C@H](CCC(=O)O)NC(=O)c2ccccc2)cc1 [Compound 202]
< 100	CC(C)C[C@H](NC(=O)[C@H](CCC(=O)O)NC(=O)CC(C)CC(=O)O)C(=O)N[C@@H](CS)C(=O)NCCc1ccccc1Cl (stereo partly drawn) [Compound 245]
< 100	CC(C)C[C@H](NC(=O)[C@H](CCC(=O)O)NC(=O)c1cc2ccccc2s1)C(=O)N[C@@H](CS)C(=O)NCCc1ccccc1Cl [Compound 212]
< 100	CC(C)C[C@H](NC(=O)[C@H](CCC(=O)O)NC(=O)CC1CCCCC1)C(=O)N[C@@H](CS)C(=O)NCCc1ccccc1Cl [Compound 234]
< 100	CC(C)C[C@H](NC(=O)[C@H](CCC(=O)O)NC(=O)c1ccccc1-c1ccccc1C(=O)O)C(=O)N[C@@H](CS)C(=O)NCCc1ccccc1Cl [Compound 211]
< 100	CC(C)C[C@H](NC(=O)[C@H](CCC(=O)O)NC(=O)c1ccco1)C(=O)N[C@@H](CS)C(=O)NCCc1ccccc1Cl [Compound 201]
< 100	CC(C)C[C@H](NC(=O)[C@H](CCC(=O)O)NS(=O)(=O)Cc1ccccc1)C(=O)N[C@@H](CS)C(=O)NCCc1ccc(Cl)cc1Cl [Compound 256]
< 100	CC(C)C[C@H](NC(=O)[C@H](CCC(=O)O)NC(=O)N1CCOCC1)C(=O)N[C@@H](CS)C(=O)NCCc1ccccc1Cl [Compound 237]
< 100	CC(C)CC(O)C(=O)N[C@@H](CCC(=O)O)C(=O)N[C@@H](CC(C)C)C(=O)N[C@@H](CS)C(=O)NCCc1ccccc1Cl (stereo partly drawn) [Compound 229]
< 100	C=CCCC(=O)N[C@@H](CCC(=O)O)C(=O)N[C@@H](CC(C)C)C(=O)N[C@@H](CS)C(=O)NCCc1ccccc1Cl [Compound 228]
< 100	CC(C)C[C@H](NC(=O)[C@H](CCC(=O)O)NC(=O)c1ccncc1N)C(=O)N[C@@H](CS)C(=O)NCCc1ccccc1Cl [Compound 209]
< 100	CC(C)C[C@H](NC(=O)[C@H](CCC(=O)O)NC(=O)Nc1ccccc1)C(=O)N[C@@H](CS)C(=O)NCCc1ccccc1Cl [Compound 247]
< 100	COc1ccc(CCNC(=O)[C@H](CS)NC(=O)[C@H](CC(C)C)NC(=O)[C@H](CCC(=O)O)NC(=O)Cc2ccccc2)cc1 [Compound 216]

Same assay, conditions: Table 4; NS3 protease domain/Pep4AK; read-out: Assay B

IC50 [µM]	Compound
< 100	CC(C)COC(=O)N[C@@H](CCC(=O)O)C(=O)N[C@H](C(=O)N[C@@H](CS)C(=O)NCCc1ccccc1Cl)C1CCCC1 [Compound 411]
< 100	CC(C)COC(=O)N[C@@H](CCC(=O)O)C(=O)N[C@@H](CCC(=O)O)C(=O)N[C@@H](CS)C(=O)NCCc1ccccc1Cl [Compound 412]
< 100	CC(C)COC(=O)N[C@@H](CCC(=O)O)C(=O)NC1(C(=O)N[C@@H](CS)C(=O)NCCc2ccccc2Cl)Cc2ccccc2C1 [Compound 415]
< 100	CC(C)COC(=O)N[C@@H](CCC(=O)O)C(=O)N1C=CC[C@H]1C(=O)N[C@@H](CS)C(=O)NCCc1ccccc1Cl [Compound 419]
